Test results from PubChem BioAssay (NCI).
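Five concentrations, 48 hours, 96-well plates. The concentration for full growth arrest is given as TGI.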

Columns and labels:
Assay in all cases: NCI anticancer screen, dose series, 48 h
RXF 393 renal = system: RXF 393 renal
MOLT-4 leukemia = system: MOLT-4 leukemia
MDA-MB-435 = system: MDA-MB-435
SW-620 colon = system: SW-620 colon
DU-145 prostate = system: DU-145 prostate
KM12 colon = system: KM12 colon
K-562 leukemia = system: K-562 leukemia
OVCAR-4 ovarian = system: OVCAR-4 ovarian
RPMI-8226 leukemia = system: RPMI-8226 leukemia
M14 melanoma = system: M14 melanoma
HOP-92 NSCLC = system: HOP-92 NSCLC
PC-3 prostate = system: PC-3 prostate
SK-MEL-2 melanoma = system: SK-MEL-2 melanoma
SNB-19 CNS = system: SNB-19 CNS
HL-60(TB) leukemia = system: HL-60(TB) leukemia
SNB-75 CNS = system: SNB-75 CNS
UACC-257 melanoma = system: UACC-257 melanoma
UACC-62 melanoma = system: UACC-62 melanoma
TK-10 renal = system: TK-10 renal
CCRF-CEM leukemia = system: CCRF-CEM leukemia
SF-539 CNS = system: SF-539 CNS
SR leukemia = system: SR leukemia
ACHN renal = system: ACHN renal
HOP-62 NSCLC = system: HOP-62 NSCLC
SN12C renal = system: SN12C renal
786-0 renal = system: 786-0 renal
MALME-3M melanoma = system: MALME-3M melanoma
SK-OV-3 ovarian = system: SK-OV-3 ovarian
NCI-H226 lung = system: NCI-H226 lung
OVCAR-8 ovarian = system: OVCAR-8 ovarian
SF-295 CNS = system: SF-295 CNS
A549 NSCLC = system: A549 NSCLC
U251 CNS = system: U251 CNS
HCT-116 colon = system: HCT-116 colon
MCF7 breast = system: MCF7 breast
SK-MEL-5 melanoma = system: SK-MEL-5 melanoma
MDA-MB-231 breast = system: MDA-MB-231 breast
HS 578T breast = system: HS 578T breast
SK-MEL-28 melanoma = system: SK-MEL-28 melanoma
NCI-H522 lung = system: NCI-H522 lung
IGROV1 ovarian = system: IGROV1 ovarian
NCI/ADR-RES ovarian = system: NCI/ADR-RES ovarian
OVCAR-5 ovarian = system: OVCAR-5 ovarian
MDA-N = system: MDA-N
LOX IMVI melanoma = system: LOX IMVI melanoma
NCI-H23 lung = system: NCI-H23 lung
NCI-H460 lung = system: NCI-H460 lung
BT-549 breast = system: BT-549 breast
HCT-15 colon = system: HCT-15 colon
HCC-2998 colon = system: HCC-2998 colon
HT29 colon = system: HT29 colon
EKVX NSCLC = system: EKVX NSCLC
T-47D breast = system: T-47D breast
UO-31 renal = system: UO-31 renal
CAKI-1 renal = system: CAKI-1 renal
OVCAR-3 ovarian = system: OVCAR-3 ovarian
SF-268 CNS = system: SF-268 CNS
COLO 205 colon = system: COLO 205 colon

SMILES: Cc1noc(NS(=O)(=O)c2ccc(NC(=O)c3ccc4[nH]c5ccccc5c(=O)c4c3)cc2)c1C
- TGI (RXF 393 renal): 98 µM
- TGI (MOLT-4 leukemia): 67.6 µM
- TGI (MDA-MB-435): > 100 µM
- TGI (SW-620 colon): > 100 µM
- TGI (DU-145 prostate): > 100 µM
- TGI (KM12 colon): > 100 µM
- TGI (K-562 leukemia): 81.5 µM
- TGI (OVCAR-4 ovarian): > 100 µM
- TGI (RPMI-8226 leukemia): > 100 µM
- TGI (M14 melanoma): > 100 µM
- TGI (HOP-92 NSCLC): > 100 µM
- TGI (PC-3 prostate): > 100 µM
- TGI (SK-MEL-2 melanoma): > 100 µM
- TGI (SNB-19 CNS): > 100 µM
- TGI (HL-60(TB) leukemia): 66.8 µM
- TGI (SNB-75 CNS): > 100 µM
- TGI (UACC-257 melanoma): > 100 µM
- TGI (UACC-62 melanoma): > 100 µM
- TGI (TK-10 renal): > 100 µM
- TGI (CCRF-CEM leukemia): 67.3 µM
- TGI (SF-539 CNS): 62.2 µM
- TGI (SR leukemia): 85.2 µM
- TGI (ACHN renal): > 100 µM
- TGI (HOP-62 NSCLC): > 100 µM
- TGI (SN12C renal): > 100 µM
- TGI (786-0 renal): > 100 µM
- TGI (MALME-3M melanoma): > 100 µM
- TGI (SK-OV-3 ovarian): > 100 µM
- TGI (NCI-H226 lung): > 100 µM
- TGI (OVCAR-8 ovarian): > 100 µM
- TGI (SF-295 CNS): > 100 µM
- TGI (A549 NSCLC): > 100 µM
- TGI (U251 CNS): > 100 µM
- TGI (HCT-116 colon): > 100 µM
- TGI (MCF7 breast): 66.5 µM
- TGI (SK-MEL-5 melanoma): > 100 µM
- TGI (MDA-MB-231 breast): > 100 µM
- TGI (HS 578T breast): > 100 µM
- TGI (SK-MEL-28 melanoma): > 100 µM
- TGI (NCI-H522 lung): 76.2 µM
- TGI (IGROV1 ovarian): > 100 µM
- TGI (NCI/ADR-RES ovarian): > 100 µM
- TGI (OVCAR-5 ovarian): > 100 µM
- TGI (MDA-N): > 100 µM
- TGI (LOX IMVI melanoma): 56.5 µM
- TGI (NCI-H23 lung): > 100 µM
- TGI (NCI-H460 lung): > 100 µM
- TGI (BT-549 breast): > 100 µM
- TGI (HCT-15 colon): > 100 µM
- TGI (HCC-2998 colon): 65.2 µM
- TGI (HT29 colon): > 100 µM
- TGI (EKVX NSCLC): > 100 µM
- TGI (T-47D breast): 63.2 µM
- TGI (UO-31 renal): > 100 µM
- TGI (CAKI-1 renal): > 100 µM
- TGI (OVCAR-3 ovarian): 77.8 µM
- TGI (SF-268 CNS): > 100 µM
- TGI (COLO 205 colon): > 100 µM
